35 compounds from patent US4877795A, “4H-quinolizin-4-one compounds useful for the treatment of allergic bronchial asthma, allergic rhinitis atropic dermatitis and the like” (Kissei Pharmaceutical Co., Ltd., priority 1987, dated 1989) can be followed below.

In one test the test system is IgE. Kind of test: Determination of Igs produced in in vitro culture: inhibition of IgE secreted by spleen cells (adoptive secondary immune response to DNP-As), ELISA. Format: cell-based, BALB/c mice. As to conditions: Mus musculus, 96 h, 4 days culture; for inhibition at 5 µg/mL: 5.0 μg/ml; for inhibition at 10 µg/mL: 10.0 μg/ml; for inhibition at 40 µg/mL: 40.0 μg/ml; for inhibition at 1 µg/mL: 1.0 μg/ml; for inhibition at 2.5 µg/mL: 2.5 μg/ml. On the procedure: (§1) Determination of Igs produced in in vitro culture
(§2) BALB/c mice were immunized intraperitoneally with 5 μg of DNP-As adsorbed in 4 mg aluminum hydroxide gel. 4 weeks after the immunization, the spleens were excised from the mice and 5×10^7 spleen cells were transferred intravenously into the recipient mice which had been exposed to 600 rad of X-ray irradiation. Immediately after cell transfer, the recipients were then immunized intraperitoneally with 5 μg of DNP-As adsorbed in 4 mg aluminum hydroxide gel to induce adoptive secondary immune response. Further 4 weeks after the immunization of recipients, the spleens were excised from them and the spleen cell suspensions 5×10^6 cells/ml were cultured with or without a compound to be tested in 96-well micro plates at 37° C. for 4 days. IgE and IgG secreted into the culture supernatant was each determined correspondingly by ELISA and the inhibitory effect was calculated according to the following equation. [formula]
For orientation: ELISA stands for enzyme-linked immunosorbent assay.

For the next test, the system named is IgG. Kind of test: Determination of Igs produced in in vitro culture: inhibition of IgG secreted by spleen cells (adoptive secondary immune response to DNP-As), ELISA. Format: cell-based, BALB/c mice. As to conditions: Mus musculus, 96 h, 4 days culture; for inhibition at 5 µg/mL: 5.0 μg/ml; for inhibition at 10 µg/mL: 10.0 μg/ml; for inhibition at 40 µg/mL: 40.0 μg/ml; for inhibition at 1 µg/mL: 1.0 μg/ml; for inhibition at 2.5 µg/mL: 2.5 μg/ml. On the procedure: as §1, §2

What is called inhibition is the relative decrease from the control value, in per cent. Turning to `CCOC(=O)c1c(SC(C)C)c(C#N)c(=O)n2ccccc12` [S-57, Ethyl 3-cyano-2-isopropylthio-4H-quinolizin-4-one-1-carboxylate], the inhibition at 5 µg/mL is 53% with IgE and 32% with IgG.

Consider `CCCCSc1c(C#N)c(=O)n2ccccc2c1C(=O)OCC` [S-58, Ethyl 3-cyano-2-butylthio-4H-quinolizin-4-one-1-carboxylate], for which the values for the inhibition at 10 µg/mL in the test with IgE and in the test with IgG were 89% and 60%, respectively.

As for `CCOC(=O)c1c(SCc2ccccc2)c(C#N)c(=O)n2ccccc12` [S-59, Ethyl 3-cyano-2-benzylthio-4H-quinolizin-4-one-1-carboxylate], the figures for the inhibition at 40 µg/mL in the test with IgE and with IgG were 74% and 49%, respectively.

For `CSc1c(C#N)c(=O)n2ccccc2c1C(=O)N(Cc1ccccc1)Cc1ccccc1` [S-60, 3-Cyano-N,N-dibenzyl-2-methylthio-4H-quinolizin-4-one-1-carboxamide], the inhibition at 1 µg/mL was found to be 58% with IgE and 25% in the test with IgG.

In the case of `CSc1c(C#N)c(=O)n2ccccc2c1C(=O)N(C1CCCCC1)C1CCCCC1` [S-61, 3-Cyano-N,N-dicyclohexyl-2-methylthio-4H-quinolizin-4-one-1-carboxamide], the inhibition at 2.5 µg/mL in the test on IgE turned out to be 93%; in the test on IgG it was 48%.

With `CCN(CC)C(=O)c1c(SC)c(C#N)c(=O)n2ccccc12` [S-62, 3-Cyano-N,N-diethyl-2-methylthio-4H-quinolizin-4-one-1-carboxamide], the inhibition at 40 µg/mL with IgE worked out at 64%; with IgG, 36%.

For `CSc1c(C#N)c(=O)n2ccccc2c1C(=O)N(C(C)C)C(C)C` [S-63, 3-Cyano-N,N-diisopropyl-2-methylthio-4H-quinolizin-4-one-1-carboxamide], the inhibition at 40 µg/mL in the test with IgE is 85%; in the test with IgG, 47%.

For `CSc1c(C#N)c(=O)n2ccccc2c1C(=O)N(CC(C)C)CC(C)C` [S-64, 3-Cyano-N,N-diisobutyl-2-methylthio-4H-quinolizin-4-one-1-carboxamide], the results for the inhibition at 5 µg/mL in the test with IgE and in the test with IgG were 65% and 41%, respectively.

Regarding `CCCCCCN(CCCCCC)C(=O)c1c(SC)c(C#N)c(=O)n2ccccc12` [S-65, 3-Cyano-N,N-dihexyl-2-methylthio-4H-quinolizin-4-one-1-carboxamide], the inhibition at 2.5 µg/mL in the test on IgE was determined as 87%; in the test on IgG, 40%.

Regarding `CSc1c(C#N)c(=O)n2ccccc2c1C(=O)N(C)Cc1ccccc1` [S-66, N-Benzyl-3-cyano-N-methyl-2-methylthio-4H-quinolizin-4-one-1-carboxamide], the inhibition at 40 µg/mL is 64% in the test on IgE and 35% in the test with IgG.

As for `CSc1c(C#N)c(=O)n2ccccc2c1C(=O)N(CCNc1ccccc1)c1ccccc1` [S-67, 3-Cyano-2-methylthio-N-phenyl-N-(2-phenylaminoethyl)-4H-quinolizin-4-one-1-carboxamide], the results for the inhibition at 2.5 µg/mL in the test with IgE and with IgG were 68% and 46%, respectively.

For the compound `CSc1c(C#N)c(=O)n2ccccc2c1C(=O)N(Cc1ccccc1)C(C)C` [S-68, N-Benzyl-3-cyano-N-isopropyl-2-methylthio-4H-quinolizin-4-one-1-carboxamide], the inhibition at 2.5 µg/mL in the test with IgE came out at 41%; in the test with IgG it was 7%.

For the compound `CSc1c(C#N)c(=O)n2ccccc2c1C(=O)N(C(C)C)C1CCCCC1` [S-69, 3-Cyano-N-cyclohexyl-N-isopropyl-2-methylthio-4H-quinolizin-4-one-1-carboxamide], the inhibition at 2.5 µg/mL in the test on IgE turned out to be 56%; in the test with IgG it was 22%.

In the case of `C=CCN(C(=O)c1c(SC)c(C#N)c(=O)n2ccccc12)C1CCCCC1` [S-70, N-Allyl-3-cyano-N-cyclohexyl-2-methylthio-4H-quinolizin-4-one-1-carboxamide], the inhibition at 5 µg/mL with IgE was 65%; in the test on IgG it was 32%.

Turning to `CSc1c(C#N)c(=O)n2ccccc2c1C(=O)NCCCc1ccccc1` [S-71], the figures for the inhibition at 5 µg/mL in the test on IgE and in the test with IgG were 63% and 35%, respectively.

For the compound `CSc1c(C#N)c(=O)n2ccccc2c1C(=O)NC1CCCCC1` [S-72, 3-Cyano-N-cyclohexyl-2-methylthio-4H-quinolizin-4-one-1-carboxamide], the results for the inhibition at 5 µg/mL in the test with IgE and with IgG were 46% and -5%, respectively.

Consider `CSc1c(C#N)c(=O)n2ccccc2c1C(=O)NCc1ccccc1` [S-73, N-Benzyl-3-cyano-2-methylthio-4H-qunolizin-4-one-1-carboxamide], for which the values for the inhibition at 40 µg/mL in the test with IgE and with IgG were 55% and 24%, respectively.

For the compound `CSc1c(C#N)c(=O)n2ccccc2c1C(=O)Nc1ccc(Nc2ccccc2)cc1` [S-74, N-(4-Anilinophenyl)-3-cyano-2-methylthio-4H-quinolizin-4-one-1-carboxamide], the inhibition at 2.5 µg/mL was 51% in the test on IgE and 10% with IgG.

In the case of `CSc1c(C#N)c(=O)n2ccccc2c1C(=O)Nc1nc(-c2ccccc2)cs1` [S-75, 3-Cyano-2-methylthio-N-(4-phenyl-2-thiazolyl)-4H-quinolizin-4-one-1-carboxamide], the inhibition at 2.5 µg/mL in the test on IgE was 50%; in the test on IgG, 25%.

`CSc1c(C#N)c(=O)n2ccccc2c1C(=O)NC1CCCc2ccccc21` (stereo not shown) [S-76, 3-Cyano-2-methylthio-N-(1,2,3,4-tetrahydro-1-naphthyl)-4H-quinolizin-4-one-1-carboxamide]: the inhibition at 2.5 µg/mL in the test with IgE is 37%; in the test on IgG, 1%.

For the compound `COC(=O)c1ccc(CNC(=O)c2c(SC)c(C#N)c(=O)n3ccccc23)cc1` [S-77], the inhibition at 5 µg/mL in the test on IgE is 34%; with IgG it was 10%.

As to `CSc1c(C#N)c(=O)n2ccccc2c1C(=O)N1CCC(c2ccccc2)CC1` [S-78, 3-Cyano-2-methylthio-1-(4-phenylpiperidinocarbonyl)-4H-quinolizin-4-one], the values for the inhibition at 2.5 µg/mL in the test with IgE and in the test on IgG were 60% and 16%, respectively.

Turning to `CSc1c(C#N)c(=O)n2ccccc2c1C(=O)N1CCCCC1` [S-79, 3-Cyano-2-methylthio-1-piperidinocarbonyl-4H-quinolizin-4-one], the inhibition at 40 µg/mL turned out to be 59% in the test on IgE and 13% with IgG.

`CSc1c(C#N)c(=O)n2ccccc2c1C(=O)N1CCC(OC(C)=O)(c2ccccc2)CC1` [S-80, 1-(4-Acetoxy-4-phenylpiperidinocarbonyl)-3-cyano-methylthio-4H-quinolizin-4-one]: the inhibition at 2.5 µg/mL in the test with IgE came out at 66%; in the test on IgG it was 34%.

Turning to `CSc1c(C#N)c(=O)n2ccccc2c1C(=O)N1CCCC2CCCCC21` (stereo not shown) [S-86], the inhibition at 2.5 µg/mL with IgE was found to be 46%; in the test with IgG it was 21%.

Turning to `CSc1c(C#N)c(=O)n2ccccc2c1C(=O)N1CCc2ccccc2C1` [S-87, 3-Cyano-2-methylthio-1-(1,2,3,4-tetrahydroisoquinolin-2-ylcarbonyl)-4H-quinolizin-4-one], the inhibition at 5 µg/mL was 61% with IgE and 36% in the test on IgG.

As for `CSc1c(C#N)c(=O)n2ccccc2c1C(=O)N1CCCc2ccccc21` [S-88, 3-Cyano-2-methylthio-1-(1,2,3,4-tetrahydroquinolin-1-ylcarbonyl)-4H-quinolizin-4-one], the inhibition at 2.5 µg/mL in the test on IgE amounted to 40%; with IgG it was 7%.

Consider `CSc1c(C#N)c(=O)n2ccccc2c1C(=O)N1CCN(Cc2ccc3c(c2)OCO3)CC1` [S-89, 3-Cyano-2-methylthio-1-(4-piperonyl-1-piperadinyl-carbonyl)-4H-quinolizin-4-one], for which the inhibition at 5 µg/mL with IgE came out at 58%; in the test with IgG, 32%.

As to `CSc1c(C#N)c(=O)n2ccccc2c1C(=O)N1CCN(Cc2ccccc2)CC1` [S-90, 1-(4-Benzyl-1-piperadinylcarbonyl)-3-cyano-2-methylthio-4H-quinolizin-4-one], the inhibition at 5 µg/mL with IgE came to 45%; with IgG, 14%.

With `CSc1c(C#N)c(=O)n2ccccc2c1C(=O)N1CCN(c2ccccc2)CC1` [S-91, 3-Cyano-2-methylthio-1-(4-phenyl-1-piperadinylcarbonyl)-4H-quinolizin-4-one], the inhibition at 2.5 µg/mL in the test with IgE amounted to 39%; with IgG, 11%.

On to `CSc1c(C#N)c(=O)n2ccccc2c1C(C)=O` [S-92, 1-Acetyl-3-cyano-2-methylthio-4H-quinolizin-4-one], for which the inhibition at 40 µg/mL in the test with IgE turned out to be 56%; in the test with IgG, 8%.

On to `CCCC(=O)c1c(SC)c(C#N)c(=O)n2ccccc12` [S-93, 1-Butyryl-3-cyano-2-methylthio-4H-quinolizin-4-one], for which the inhibition at 10 µg/mL in the test with IgE was 62%; with IgG, 31%.

Take `CSc1c(C#N)c(=O)n2ccccc2c1C(=O)CC1CCCCC1` [S-94, 3-Cyano-1-cyclohexylacetyl-2-methylthio-4H-quinolizin-4-one]: the inhibition at 1 µg/mL in the test on IgE was determined as 62%; with IgG it was 33%.

As for `CSc1c(C#N)c(=O)n2ccccc2c1C(=O)Cc1ccccc1` [S-95, 3-Cyano-2-methylthio-1-phenylacetyl-4H-quinolizin-4-one], the inhibition at 20 µg/mL in the test on IgE (20.0 μg/ml) was 70%; with IgG (20.0 μg/ml), 47%.

As to `CSc1c(C#N)c(=O)n2ccccc2c1C(=O)Cc1ccc(Cl)cc1` [S-96, 1-(4-Chlrophenylacetyl)-3-cyano-2-methylthio-4H-quinolizin-4-one], the values for the inhibition at 5 µg/mL with IgE and in the test on IgG were 41% and 12%, respectively.
